Tests used:
Type in all cases: in vivo
[1] = tested on: spontaneously hypertensive rats; experiment: Antihypertensive effects in spontaneously hypertensive rats, oral administration; conditions: at 10 mg/Kg p.o., mean ± S.E. of 5 to 10 animals, measured indirectly from the tail
Method: B. Antihypertensive effects in spontaneously hypertensive rats: Oral administration: The systolic blood pressure was measured indirectly from the tail using a programmed electro-sphygmanometer (Nacro Bio-Systems Inc., PE-300) on spontaneously hypertensive rats having a systolic blood pressure of higher than 150 mmHg, the result being shown in Table II.

[2] = tested on: β-Adrenergic; experiment: β-Adrenergic blocking action: antagonism of isoproterenol induced tachycardia in rats; conditions: reserpine pretreated, pentobarbital anesthetized rats, isoproterenol 0.1 μg/Kg iv.; for ED50: Rattus norvegicus, iv; for β-blocking (Rat) ED50: i.v.
Method: Bilateral vagotomy was performed at the neck. The effects of the test samples to antagonize the isoproterenol (0.1 μg/Kg iv.) induced tachycardia were measured and the results were shown in Table I.

[3] = tested on: α-Adrenergic; experiment: α-Adrenergic blocking action: antagonism of hypertensive response to phenylephrine in anesthetized rats; conditions: urethane anesthetized, pentolinium treated rats, phenylephrine 10 μg/Kg i.v.; for ED50: Rattus norvegicus, iv, read-out: α-blocking (Rat) ED50; for α-blocking (Rat) ED50: i.v.
Method: A. α-Adrenergic blocking action: (a) The blood pressure was measured in rats anesthetized with urethane and treated with pentolinium.

| SMILES | antihypertensive effect: change in systolic blood pressure [1] [mmHg] | ED50 [2] [mg/kg] | ED50 [3] [mg/kg] | antihypertensive effect: change in systolic blood pressure ([1]; 10 mg/kg) [mmHg] | β-blocking (Rat) ED50 [2] [mg/kg] | α-blocking (Rat) ED50 [3] [mg/kg] |
| --- | --- | --- | --- | --- | --- | --- |
| COc1ccccc1OCCNCC(O)c1ccc(C)c(S(N)(=O)=O)c1.Cl (stereo not drawn) [Example 47, 5-{1-Hydroxy-2-[2-(2-methoxyphenoxy)ethylamino]ethyl}-2-methylbenzenesulfonamide hydrochloride] | -35 ± 6.4 | 0.16 | 0.034 | – | – | – |
| COc1ccccc1OCC(C)NCC(O)c1ccc(C)c(S(N)(=O)=O)c1 (stereo not drawn) [69(i2), 5-{1-hydroxy-2-[2-(2-methoxyphenoxy)-1-methylethylamino]ethyl}-2-methylbenzenesulfonamide] | – | – | – | -32 ± 6.7 | 0.47 | 0.054 |
| CCOc1ccccc1OCC(C)NCC(O)c1ccc(C)c(S(N)(=O)=O)c1.Cl (stereo not drawn) [Example 39, 5-{1-Hydroxy-2-[2-(2-ethoxyphenoxy)-1-methylethylamino]-ethyl}-2-methylbenzenesulfonamide hydrochloride] | -11 ± 5.5 | 0.27 | 0.066 | – | – | – |
| Cc1ccc(C(O)CNC(C)C2COc3ccccc3O2)cc1S(N)(=O)=O (stereo not drawn) [Example 28] | -23 ± 4.3 | 0.42 | 1.1 | – | – | – |
| COc1ccccc1OCC(C)NCC(O)c1ccc(C)c(S(N)(=O)=O)c1 (stereo not drawn) [69(i1 + i2), 5-{1-hydroxy-2-[2-(2-methoxyphenoxy)-1-methylethylamino]ethyl}-2-methylbenzenesulfonamide] | – | – | – | -43 ± 5.8 | 0.083 | 0.27 |
